Where two headings read alike, the source gives them in different places.
Assays:
[1] = test system: male CD [Crl:CD(SD)] rats; assay: Conditioned place preference (CPP) study, abuse liability assessment; type: in vivo, rat; conditions: for Conditioned place preference score for CS+ (percentage of time in the 2 conditioning compartments), Mean / Conditioned place preference score for CS+, LSMean (least squares mean): 20 mg/kg oral gavage (positive control)
Protocol: Purpose: A conditioned place preference (CPP) study was conducted in rats to evaluate the abuse potential of exemplary aqueous A. muscaria extract AME-1. The CPP study is a standard behavioral model used for studying the reward and aversive effects of a compound and is designed to determine the reinforcing properties of drugs of abuse using classical Pavlovian conditioning. Accordingly, the CPP paradigm provides for a rapid measurement of the positive reinforcing or aversive properties of a test sample, in this case, AME-1.
Methods: Four treatment groups of 8 male CD® [Crl:CD®(SD)] rats were exposed to unique environmental cues associated with a conditioned stimuli (CS+) or saline (CS−) in a 3-chamber straight alleyway system. Following a habituation phase (Week −1) during which compartment preference was determined for each animal, the conditioning phase (Week 1 and Week 2) was conducted during which compartments 1 and 3 were paired with the test and control articles or saline. Saline (CS−) and test/control articles (CS+, at 800 and 1100 mg/kg of exemplary A. muscaria aqueous extract AME-1 or 20 mg/kg cocaine) were administered via oral gavage at a dose volume of 5 mL/kg. After two sets of conditioning trials during the conditioning phase, each rat was retested for free-choice side preference (Days 5 and 12). Each rat received eight stimulus environmental pairing sessions (e.g., four test article and four saline) and two CPP test sessions (T1, T2). The study design was as follows:
The following parameters and endpoints were evaluated in this study: mortality, clinical signs, body weights, and CPP testing. During CPP testing sessions, the following parameters were assessed: 1) Total time spent in the black and/or white (Compartment 1 and 3) compartments, which were used to calculate the “preference score,” and these values expressed as a percentage of time in the two conditioning compartments; 2) Total number of beam breaks in each conditioning compartment; and 3) Preference score expressed as a percentage of time in the 2 conditioning compartments. Only preference scores for the CS+ expressed as a percentage of time in the 2 conditioning compartments were reported. A CPP was determined when the test subject spent more time in the test sample-paired compartment versus the vehicle-paired compartment. Conversely, a conditioned place aversion (CPA) was determined when the test subject spent more time in the vehicle-paired compartment versus the sample-paired compartment. Therefore, possible outcomes included whether AME-1 causes a dependence, an aversive effect, or no effect. The total time spent in the nonpreferred compartment+total time spent in both conditioning compartments was expressed as a percentage, and used as a measure of “side preference.” Side preference infers a hedonic valence for the environmental cues of the compartment. Initial side preferences/biases (Habituated Score-H) were used to determine which of two compartments would be paired with the targeted interoceptive states. After two CS-UCS pairings, groups were retested for side preference (Test 1-1; Test 2-2). A significant change score from the initial habituation test scores reflected a conditioned place approach (* p<0.05).

[2] = after ingestion of Amanita mushrooms; cited from earlier work
[3] = stomach, liver and brain; cited from earlier work
GABA receptor = conditions: cited from earlier work; for Mechanism of action at the GABA receptor: Brehm et al., Walker et al.
[4] = test system: levels of serotonin (5-hydroxytryptamine), noradrenaline and dopamine in the brain; conditions: male rats and mice, cited from earlier work
[5] = cited from earlier work

In the case of `COC(=O)[C@H]1[C@@H](OC(=O)c2ccccc2)C[C@@H]2CC[C@H]1N2C` [Cocaine], the “Conditioned place preference score for CS+ (percentage of time in the 2 conditioning compartments), Mean” value ([1]; Habituation) is reported as 39.593, the “Conditioned place preference score for CS+, LSMean (least squares mean)” value ([1]; Habituation) is reported as 39.162 and the “Conditioned place preference score for CS+ (percentage of time in the 2 conditioning compartments), Mean” value ([1]; Overall) is reported as 49.665. For the same molecule, the “Conditioned place preference score for CS+, LSMean (least squares mean)” value ([1]; Overall, different from Groups 1 and 3, p < 0.05) was 49.639^a, f, the “Conditioned place preference score for CS+ (percentage of time in the 2 conditioning compartments), Mean” value ([1]; Test 1) was 61.194 and the “Conditioned place preference score for CS+, LSMean (least squares mean)” value ([1]; Test 1) was 61.877. For the same molecule, the “Conditioned place preference score for CS+ (percentage of time in the 2 conditioning compartments), Mean” value ([1]; Test 2) was 48.208, the “Conditioned place preference score for CS+, LSMean (least squares mean)” value ([1]; Test 2) was 47.822 and the “Outcome of CPP testing: conditioned place preference” value ([1]; 20 mg/kg oral gavage, positive control) was “did produce a CPP”.
For `N[C@H](C(=O)O)c1cc(O)no1` [ibotenic acid, (S)-2-Amino-2-(3-hydroxyisoxazol-5-yl) acetic acid], the “Time of detection in urine after ingestion” value [2] is listed as “detected within an hour after ingestion”, the Metabolic fate [3] is listed as “metabolized by decarboxylation in the stomach, liver, and brain to equal amounts of muscimol” and the “Mechanism of action at the GABA receptor” value (GABA receptor) is listed as “activation of the GABA receptor”. For the same molecule, the “Effect on brain levels of serotonin, noradrenaline and dopamine” value ([4]; 16 mg/kg intraperitoneally) was “affect the levels of serotonin (5-hydroxytryptamine), noradrenaline and dopamine in the brain”.
For `NCc1cc(=O)[nH]o1` [muscimol, 5-(Aminomethyl)-1,2-oxazol-3(2H)-one], the “Time of detection in urine after ingestion” value [2] is listed as “detected within an hour after ingestion”, the “Mechanism of action at the GABA receptor” value (GABA receptor) is listed as “activation of the GABA receptor” and the “GABA agonist affinity and efficacy” value (GABA receptor; Worms et al.) is listed as “GABA agonist of high affinity but of relatively low efficacy”. The “Effect on brain levels of serotonin, noradrenaline and dopamine” value ([4]; 3 mg/kg intraperitoneally) was “affect the levels of serotonin (5-hydroxytryptamine), noradrenaline and dopamine in the brain”, the “Amount of the dose injected that crossed to the brain” value ([5]; IV 8 μmol/kg 3H-muscimol, 150 g male Sprague Dawley rat) was “approximately 0.02%” and the “Muscimol amount in the brain” value ([5]; IV 8 μmol/kg 3H-muscimol, male Sprague Dawley rat) was “approximately 200 pmol/g tissue”. The “Distribution at various brain regions” value ([5]; IV 8 μmol/kg, male Sprague Dawley rat) was “highest muscimol concentration being in the substantia nigra, the colliculi and the hypothalamus”, the “Time until blood concentration was below limits of detection” value ([5]; after intravenous injection, rat) was ≤ 180 min and the “Distribution in the corneum stratum compared to the hypothalamus, hippocampus and cortex” value ([5]; intracerebroventricular injection 1200 nmol/kg, rat) was “approximately 2 times”. For the same molecule, the “Tolerability (reports of adverse effects or toxicity)” value ([5]; intravenous injection 8 μmol/kg, rat) was “well-tolerated”.
